Measurements reported in ChEMBL document CHEMBL4706499, “PTG-0861: A novel HDAC6-selective inhibitor as a therapeutic strategy in acute myeloid leukaemia” (Eur J Med Chem, 2020).

Assays:
[1] = Selectivity ratio of IC50 for full length recombinant human HDAC3 to IC50 for full length recombinant human HDAC6
Histone deacetylase 11 = target: T1, Histone deacetylase 11 (Homo sapiens, UniProt Q96DB2); experiment: Inhibition of recombinant full length human HDAC11 expressed in SF9 baculovirus using FAM- labelled acetylated peptide as substrate measured by Electrophoretic mobility shift assay
T1 sequence (Q96DB2 whole entry): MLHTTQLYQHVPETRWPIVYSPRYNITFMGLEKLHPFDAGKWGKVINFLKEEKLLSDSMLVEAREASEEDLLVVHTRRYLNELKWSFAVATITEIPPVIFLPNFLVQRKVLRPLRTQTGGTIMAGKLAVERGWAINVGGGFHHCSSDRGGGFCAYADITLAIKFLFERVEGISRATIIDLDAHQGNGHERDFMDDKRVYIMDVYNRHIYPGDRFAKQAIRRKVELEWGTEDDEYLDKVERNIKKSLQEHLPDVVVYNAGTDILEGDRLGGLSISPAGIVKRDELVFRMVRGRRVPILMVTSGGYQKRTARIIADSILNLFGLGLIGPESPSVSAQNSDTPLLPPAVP

MV4-11 = experiment: Cytotoxicity against human MV4-11 cells measured after 72 hrs by spectrophotometer method; assay type: functional, cell-based; conditions: MV4-11, 72 h
Histone deacetylase 8 = target: T2, Histone deacetylase 8 (Homo sapiens, UniProt Q9BY41); experiment: Inhibition of recombinant full length human HDAC8 expressed in SF9 baculovirus using FAM- labelled acetylated peptide as substrate measured by Electrophoretic mobility shift assay
T2 sequence (Q9BY41 whole entry): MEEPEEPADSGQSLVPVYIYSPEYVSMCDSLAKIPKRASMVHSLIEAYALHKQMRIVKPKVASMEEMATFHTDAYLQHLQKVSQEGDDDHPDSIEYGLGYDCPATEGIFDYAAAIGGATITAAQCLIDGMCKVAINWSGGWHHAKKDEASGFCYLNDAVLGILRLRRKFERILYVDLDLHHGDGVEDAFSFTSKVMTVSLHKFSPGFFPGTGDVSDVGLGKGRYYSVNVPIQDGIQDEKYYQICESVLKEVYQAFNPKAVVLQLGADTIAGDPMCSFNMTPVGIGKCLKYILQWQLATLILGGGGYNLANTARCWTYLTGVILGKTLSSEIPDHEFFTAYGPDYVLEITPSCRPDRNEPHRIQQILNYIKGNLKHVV

[2] = target: T3, Protein deacetylase HDAC6 (Homo sapiens, UniProt Q9UBN7); experiment: Inhibition of recombinant full length human HDAC6 expressed in SF9 baculovirus using FAM- labelled acetylated peptide as substrate measured by Electrophoretic mobility shift assay
T3 sequence (Q9UBN7 whole entry): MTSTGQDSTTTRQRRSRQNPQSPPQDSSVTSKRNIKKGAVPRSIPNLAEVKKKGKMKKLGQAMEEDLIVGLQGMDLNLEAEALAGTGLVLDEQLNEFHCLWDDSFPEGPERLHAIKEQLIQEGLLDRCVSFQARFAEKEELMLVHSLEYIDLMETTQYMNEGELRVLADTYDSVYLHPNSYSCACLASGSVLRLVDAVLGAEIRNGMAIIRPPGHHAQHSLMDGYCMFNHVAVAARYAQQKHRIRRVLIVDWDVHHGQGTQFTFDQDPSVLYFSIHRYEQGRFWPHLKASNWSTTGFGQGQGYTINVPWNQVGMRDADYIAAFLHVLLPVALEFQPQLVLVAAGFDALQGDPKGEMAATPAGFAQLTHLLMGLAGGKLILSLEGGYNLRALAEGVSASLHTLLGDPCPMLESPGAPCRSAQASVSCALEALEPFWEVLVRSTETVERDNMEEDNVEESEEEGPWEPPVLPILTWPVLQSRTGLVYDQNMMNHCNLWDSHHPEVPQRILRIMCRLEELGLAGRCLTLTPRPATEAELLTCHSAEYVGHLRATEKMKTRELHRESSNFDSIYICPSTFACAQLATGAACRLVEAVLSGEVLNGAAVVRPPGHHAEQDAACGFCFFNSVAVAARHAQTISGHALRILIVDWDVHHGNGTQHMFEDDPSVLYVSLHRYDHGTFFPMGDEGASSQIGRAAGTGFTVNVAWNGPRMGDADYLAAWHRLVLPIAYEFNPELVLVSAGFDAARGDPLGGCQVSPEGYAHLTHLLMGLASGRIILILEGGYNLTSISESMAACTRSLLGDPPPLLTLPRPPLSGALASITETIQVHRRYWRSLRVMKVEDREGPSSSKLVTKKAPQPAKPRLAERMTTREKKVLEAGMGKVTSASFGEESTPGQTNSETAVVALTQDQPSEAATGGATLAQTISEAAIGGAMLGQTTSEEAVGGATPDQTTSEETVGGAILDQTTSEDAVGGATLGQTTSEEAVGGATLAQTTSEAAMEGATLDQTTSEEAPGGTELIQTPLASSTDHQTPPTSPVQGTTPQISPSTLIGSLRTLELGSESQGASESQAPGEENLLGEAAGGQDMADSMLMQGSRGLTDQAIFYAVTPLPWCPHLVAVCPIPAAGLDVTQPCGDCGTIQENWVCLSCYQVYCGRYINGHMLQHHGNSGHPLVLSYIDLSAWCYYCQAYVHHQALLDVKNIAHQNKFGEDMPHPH

[3] = Cytotoxicity against human MRC9 cells measured after 72 hrs by spectrophotometer method; assay type: cell-based; conditions: MRC9, 72 h
Histone deacetylase 3 = Histone deacetylase 3 (Homo sapiens, UniProt O15379); experiment: Inhibition of recombinant full length human HDAC3 expressed in SF9 baculovirus using FAM- labelled acetylated peptide as substrate measured by Electrophoretic mobility shift assay
Chain of Histone deacetylase 3 (O15379 whole entry): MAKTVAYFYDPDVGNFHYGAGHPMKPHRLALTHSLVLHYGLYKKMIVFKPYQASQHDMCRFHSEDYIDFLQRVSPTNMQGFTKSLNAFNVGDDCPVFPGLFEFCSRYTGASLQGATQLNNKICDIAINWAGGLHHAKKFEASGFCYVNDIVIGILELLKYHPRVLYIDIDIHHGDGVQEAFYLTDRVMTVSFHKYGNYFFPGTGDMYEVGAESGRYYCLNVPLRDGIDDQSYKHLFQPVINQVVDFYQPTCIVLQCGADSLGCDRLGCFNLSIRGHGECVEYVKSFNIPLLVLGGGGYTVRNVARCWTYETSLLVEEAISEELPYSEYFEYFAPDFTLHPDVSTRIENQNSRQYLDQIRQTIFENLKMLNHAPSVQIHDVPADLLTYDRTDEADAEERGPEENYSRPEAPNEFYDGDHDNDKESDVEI

| SMILES | Ratio IC50 [1] | IC50 (Histone deacetylase 11) [nM] | IC50 (Histone deacetylase 8) [nM] | IC50 [2] [nM] | IC50 (Histone deacetylase 3) [nM] | IC50 (MV4-11) [nM] | IC50 [3] [nM] |
| --- | --- | --- | --- | --- | --- | --- | --- |
| O=C(/C=C/c1ccc(CN(C(=O)c2c(F)c(F)c(F)c(F)c2F)C2CC2)cc1)NO | 5.83 | > 1000 | 420 | 12 | 70 | 760 | > 25000 |
| O=C(NO)c1ccc(NC(=O)c2ccc(N3CCOCC3)cc2)cc1 | > 9.53 | > 1000 | 921 | 96.6 | > 1000 | 17100 | > 50000 |
| CC(C)(C)c1cccc(C(=O)Nc2ccc(C(=O)NO)cc2)c1 |  |  |  |  |  | 3880 | > 25000 |
| O=C(/C=C/c1ccc(CNC(=O)c2c(F)c(F)c(F)c(F)c2F)cc1)NO |  | > 1000 | 283 | 14 | 13 | 320 | > 25000 |
| CC(C)N(Cc1ccc(C(=O)NO)cc1)C(=O)c1c(F)c(F)c(F)c(F)c1F | 62.6 | > 1000 | 876 | 14 | > 1000 | 16400 | > 15000 |
| CN(Cc1ccc(C(=O)NO)cc1)C(=O)c1c(F)c(F)c(F)c(F)c1F | 42.8 | > 1000 | > 1000 | 17.3 | 740 | 3730 | > 25000 |
| O=C(NO)c1ccc(NC(=O)c2c(F)c(F)c(F)c(F)c2F)cc1 | 2.14 | 700 | 14 | 1.46 | 3.13 | 1510 | > 25000 |
| CC(C)(C)c1ccc(S(=O)(=O)NCc2ccc(C(=O)NO)cc2)cc1 | 7.09 | > 1000 | 622 | 41.9 | 297 | 5030 | > 25000 |
| O=C(NO)c1ccc(NC(=O)c2ccc(C3CCCCC3)cc2)cc1 | 5.98 | 411 | 208 | 26.6 | 159 | 530 | > 25000 |
| O=C(NO)c1ccc(CN(C(=O)c2c(F)c(F)c(F)c(F)c2F)C2CC2)cc1 | > 52.8 | > 1000 | 971 | 18.4 | > 1000 | 7370 | > 50000 |

More lines, main results first:

| Ratio IC50 [1] | IC50 (Histone deacetylase 11) [nM] | IC50 (Histone deacetylase 8) [nM] | IC50 [2] [nM] | IC50 (Histone deacetylase 3) [nM] | SMILES | IC50 (MV4-11) [nM] | IC50 [3] [nM] |
| --- | --- | --- | --- | --- | --- | --- | --- |
| 1.12 | 44.2 | 13.3 | 2.01 | 2.25 | CC(C)(C)c1ccc(S(=O)(=O)Nc2ccc(C(=O)NO)cc2)cc1 | 1180 | > 25000 |
| 6.7 | > 1000 | 567 | 6.77 | 45.4 | O=C(NO)c1ccc(NC(=O)c2ccc(F)cc2)cc1 | 3640 | > 25000 |
|  | > 1000 | 162 | 32.4 | 15.2 | CC(C)(C)c1ccc(C(=O)NCc2ccc(C(=O)NO)cc2)cc1 | 570 | > 25000 |
|  | > 1000 | 74.3 | 13 | 3.74 | CC(C)(C)c1ccc(CC(=O)Nc2ccc(C(=O)NO)cc2)cc1 | 340 | > 15000 |
| 12.9 | > 1000 | 269 | 20.9 | 323 | CC(C)(C)c1ccc(C(=O)N(Cc2ccc(C(=O)NO)cc2)C2CC2)cc1 | 8570 | > 25000 |
| 4.23 | 704 | 20.4 | 2.81 | 11.9 | O=C(NO)c1ccc(NC(=O)c2ccc(C3CC3)cc2)cc1 | 1080 | > 25000 |
|  | 223 | 9.4 | 17.5 | 34.4 | CC(C)(C)c1ccc(NS(=O)(=O)c2ccc(C(=O)NO)cc2)cc1 | 7160 | > 50000 |
|  | > 1000 | 281 | > 1000 | > 1000 | CCN(C(=O)c1ccc(C(C)(C)C)cc1)c1ccc(C(=O)NO)cc1 | 8230 | > 25000 |
| 1.05 | 447 | 43.9 | 10.4 | 10.9 | CC(C)(C)c1ccc(NC(=O)c2ccc(C(=O)NO)cc2)cc1 | 1440 | > 25000 |
| 6.81 | > 1000 | 21.6 | 1.6 | 10.9 | Cc1ccc(C(=O)Nc2ccc(C(=O)NO)cc2)cc1 | 2400 | > 25000 |
| 9.73 | > 1000 | 220 | 22.6 | 243 | O=C(NO)c1ccc(NC(=O)c2ccc(C(F)(F)F)cc2)cc1 | 880 | > 5000 |
